Assay results: ChEMBL document CHEMBL1949505, “Total synthesis and structure-activity relationships of new echinocandin-like antifungal cyclolipohexapeptides” (2012)
Values after ≈ are worked out from the molar mass of the structure shown. Bridge positions count the residues as written; N and C are the ends. Square brackets hold non-standard residues; d marks the D form. Peptide text beside a SMILES is read from it. * marks the point of attachment. pTerphenylCO(4''-OnC5H11) = CCCCCOc1ccc(-c2ccc(-c3ccc(C(=O)*)cc3)cc2)cc1; 2Naphthoyl(6-heptyloxy) = CCCCCCCOc1ccc2cc(C(=O)*)ccc2c1; X1 = CCCOc1ccc(-c2ccc(-c3ccc(C(=O)*)cc3)cc2)cc1; Pro(4S-NH2) = N[C@@H]1CN[C@H](C(=O)O)C1; hTyr = N[C@@H](CCc1ccc(O)cc1)C(=O)O; Orn = NCCC[C@H](N)C(=O)O

Legend:
Type in all cases: functional
Cryptococcus neoformans = test: Antifungal activity against Cryptococcus neoformans after 72 hrs by serial dilution method
Pichia kudriavzevii = test: Antifungal activity against Candida krusei after 24 hrs by serial dilution method
Candida albicans [1] = test: Antifungal activity against Candida albicans after 24 hrs by serial dilution method
Candida albicans [2] = test: Ratio of caspofungin MIC to compound MIC for Candida albicans by serial dilution method
Aspergillus fumigatus = test: Antifungal activity against Aspergillus fumigatus after 7 days by serial dilution method; conditions: 168 h
Candida parapsilosis = test: Antifungal activity against Candida parapsilosis after 24 hrs by serial dilution method; conditions: Lodderomyces parapsilosis
Trichophyton rubrum = test: Antifungal activity against Trichophyton rubrum after 7 days by serial dilution method; conditions: 168 h
Candida tropicalis = test: Antifungal activity against Candida tropicalis after 24 hrs by serial dilution method

SMILES	MIC80 (Cryptococcus neoformans) [mg/L]	MIC80 (Pichia kudriavzevii) [mg/L]	MIC80 (Candida albicans [1]) [mg/L]	Ratio (Candida albicans [2])	MIC80 (Aspergillus fumigatus) [mg/L]	MIC80 (Candida parapsilosis) [mg/L]	MIC80 (Trichophyton rubrum) [mg/L]	MIC80 (Candida tropicalis) [mg/L]
CCCOc1ccc(-c2ccc(-c3ccc(C(=O)N[C@H]4CCCNC(=O)[C@@H]5C[C@H](N)CN5C(=O)[C@H](CCCN)NC(=O)[C@H](CCc5ccc(O)cc5)NC(=O)[C@@H]5CCCN5C(=O)[C@H]([C@@H](C)O)NC4=O)cc3)cc2)cc1.Cc1ccc(S(=O)(=O)O)cc1 (X1-[Orn]TP[hTyr][Orn][Pro(4S-NH2)]; lactam 1-C)	32	0.5	0.125	4	2	4	64	8
CCCCCCCOc1ccc2cc(C(=O)N[C@H]3CCCNC(=O)[C@@H]4C[C@H](N)CN4C(=O)[C@H](CCCCN)NC(=O)[C@H](CCc4ccc(O)cc4)NC(=O)[C@@H]4CCCN4C(=O)[C@H]([C@@H](C)O)NC3=O)ccc2c1.Cc1ccc(S(=O)(=O)O)cc1 ({2Naphthoyl(6-heptyloxy)}-[Orn]TP[hTyr]K[Pro(4S-NH2)]; lactam 1-C)	64	0.5	0.125	4	1	4	32	16
CCCCCOc1ccc(-c2ccc(-c3ccc(C(=O)N[C@H]4CCCNC(=O)[C@@H]5C[C@H](N)CN5C(=O)[C@H](CCCCN)NC(=O)[C@H](CCc5ccc(O)cc5)NC(=O)[C@@H]5CCCN5C(=O)[C@H]([C@@H](C)O)NC4=O)cc3)cc2)cc1.Cc1ccc(S(=O)(=O)O)cc1 ({pTerphenylCO(4''-OnC5H11)}-[Orn]TP[hTyr]K[Pro(4S-NH2)]; lactam 1-C)	16	1	0.5		1	2	32	8
CCCCCOc1ccc(-c2ccc(-c3ccc(C(=O)N[C@H]4CCCNC(=O)[C@@H]5C[C@H](N)CN5C(=O)[C@H](CCCN)NC(=O)[C@H](CCc5ccc(O)cc5)NC(=O)[C@@H]5CCCN5C(=O)[C@H]([C@@H](C)O)NC4=O)cc3)cc2)cc1.Cc1ccc(S(=O)(=O)O)cc1 ({pTerphenylCO(4''-OnC5H11)}-[Orn]TP[hTyr][Orn][Pro(4S-NH2)]; lactam 1-C)	64	0.5	0.25		1	8	64	4
CCCCCOc1ccc(-c2ccc(-c3ccc(C(=O)N[C@H]4CCCNC(=O)[C@@H]5C[C@H](N)CN5C(=O)[C@H](CCCCN)NC(=O)[C@H](CCc5ccc(O)cc5)NC(=O)[C@@H]5CCCN5C(=O)[C@H](C(C)C)NC4=O)cc3)cc2)cc1.Cc1ccc(S(=O)(=O)O)cc1 ({pTerphenylCO(4''-OnC5H11)}-[Orn]VP[hTyr]K[Pro(4S-NH2)]; lactam 1-C)	32	2	1		1	4	32	16
CCCCCOc1ccc(-c2ccc(-c3ccc(C(=O)N[C@H]4CCCNC(=O)[C@@H]5C[C@H](N)CN5C(=O)[C@H](CCCN)NC(=O)[C@H](CCc5ccc(O)cc5)NC(=O)[C@@H]5CCCN5C(=O)[C@H](C(C)C)NC4=O)cc3)cc2)cc1.Cc1ccc(S(=O)(=O)O)cc1 ({pTerphenylCO(4''-OnC5H11)}-[Orn]VP[hTyr][Orn][Pro(4S-NH2)]; lactam 1-C)	32	2	1		0.5	4	32	8
CC[C@H](C)C[C@H](C)CCCCCCCCC(=O)N[C@H]1C[C@@H](O)[C@@H](NCCN)NC(=O)[C@@H]2[C@@H](O)CCN2C(=O)[C@H]([C@H](O)CCN)NC(=O)[C@H]([C@H](O)[C@@H](O)c2ccc(O)cc2)NC(=O)[C@@H]2C[C@@H](O)CN2C(=O)[C@H]([C@@H](C)O)NC1=O [CASPOFUNGIN]	16 (≈ 14.6 µM)	0.25 (≈ 0.229 µM)	0.5 (≈ 0.457 µM)		1 (≈ 0.915 µM)	1 (≈ 0.915 µM)	16 (≈ 14.6 µM)	4 (≈ 3.66 µM)
